These results are taken from ChEMBL document CHEMBL1143160, “Novel 3-alkoxy-1H-pyrazolo[3,4-d]pyrimidines as EGFR and erbB2 receptor tyrosine kinase inhibitors” (Bioorg Med Chem Lett, 2008).

A short description of data set [1]: Antiproliferative activity against human BT474C cells. It counts as functional, cell-based.
The target in data set [2] is T1, Receptor tyrosine-protein kinase erbB-2 (Homo sapiens, UniProt P04626). The experiment in a line: Inhibition of erbB2.
Data set [3] deals with T1, Receptor tyrosine-protein kinase erbB-2. Nature of the data set: Inhibition of erB2 autophosphorylation in clone 24 cells. Type of data set: cell-based.
The target in data set [4] is Epidermal growth factor receptor (Homo sapiens, UniProt P00533).
Epidermal growth factor receptor, sequence (P00533 whole entry): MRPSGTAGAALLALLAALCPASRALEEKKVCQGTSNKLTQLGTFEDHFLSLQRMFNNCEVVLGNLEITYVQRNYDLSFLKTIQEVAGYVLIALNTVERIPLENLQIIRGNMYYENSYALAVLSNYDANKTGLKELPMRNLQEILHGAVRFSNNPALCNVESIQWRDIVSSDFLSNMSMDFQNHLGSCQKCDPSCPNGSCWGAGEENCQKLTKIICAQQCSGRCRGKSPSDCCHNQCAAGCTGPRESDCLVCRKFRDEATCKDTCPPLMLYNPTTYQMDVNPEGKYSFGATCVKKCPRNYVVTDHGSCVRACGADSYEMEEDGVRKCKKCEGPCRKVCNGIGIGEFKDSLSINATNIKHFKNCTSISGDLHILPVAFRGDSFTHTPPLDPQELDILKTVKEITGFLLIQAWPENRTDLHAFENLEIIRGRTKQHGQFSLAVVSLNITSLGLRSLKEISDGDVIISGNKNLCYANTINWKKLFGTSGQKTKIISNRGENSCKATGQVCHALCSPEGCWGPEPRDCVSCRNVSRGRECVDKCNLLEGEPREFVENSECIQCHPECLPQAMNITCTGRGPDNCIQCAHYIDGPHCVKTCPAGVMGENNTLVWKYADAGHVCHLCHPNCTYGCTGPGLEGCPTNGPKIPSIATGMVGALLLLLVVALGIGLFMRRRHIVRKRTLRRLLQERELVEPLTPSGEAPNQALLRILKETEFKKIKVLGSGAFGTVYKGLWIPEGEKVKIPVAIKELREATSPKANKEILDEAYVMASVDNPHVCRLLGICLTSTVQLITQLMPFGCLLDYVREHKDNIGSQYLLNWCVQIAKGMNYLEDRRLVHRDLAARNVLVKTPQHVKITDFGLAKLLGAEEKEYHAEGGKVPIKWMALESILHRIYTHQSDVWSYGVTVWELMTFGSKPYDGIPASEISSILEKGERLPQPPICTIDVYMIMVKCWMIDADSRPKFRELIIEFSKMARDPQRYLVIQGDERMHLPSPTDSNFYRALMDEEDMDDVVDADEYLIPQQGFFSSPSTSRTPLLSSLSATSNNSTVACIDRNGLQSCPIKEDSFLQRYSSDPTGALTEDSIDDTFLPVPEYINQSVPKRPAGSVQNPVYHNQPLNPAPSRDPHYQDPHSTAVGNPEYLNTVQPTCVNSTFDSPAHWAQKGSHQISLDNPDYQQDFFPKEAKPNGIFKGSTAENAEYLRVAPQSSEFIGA
Data set [5] concerns KB. The experiment in a line: Antiproliferative activity against EGF-induced human KB cells. It counts as functional, cell-based.
A short description of data set [6]: Protein binding in rat plasma assessed as unbound ligand at 0.4 mg/kg, iv and 1 mg/kg, po. It counts as ADME, organism-based.
Data set [7] can be described thus: Volume of distribution at steady state in rat at 0.4 mg/kg, iv and 1 mg/kg, po. Type of data set: ADME, organism-based. The conditions noted are these: in vivo, read-out: Vdss.
Data set [8] is described as follows: Clearance in rat at 0.4 mg/kg, iv and 1 mg/kg, po. It counts as ADME, organism-based. To be noted: in vivo.
Data set [9] in a line: Half life in rat at 0.4 mg/kg, iv and 1 mg/kg, po. The conditions noted are these: in vivo. Type of data set: ADME, organism-based.
Data set [10] in a line: Oral bioavailability in rat at 1 mg/kg. It counts as ADME, organism-based. To be noted: in vivo.
Data set [11] is described as follows: Protein binding in Beagle dog plasma assessed as unbound ligand at 0.2 mg/kg, iv and 0.4 mg/kg, po. It counts as ADME, organism-based, Canis lupus familiaris. To be noted: read-out: PPB.
Data set [12] can be described thus: Volume of distribution at steady state in male and female Beagle dog at 0.2 mg/kg, iv and 0.4 mg/kg, po. Type of data set: ADME, organism-based, Canis lupus familiaris. To be noted: both, in vivo, read-out: Vdss.
The nature of data set [13]: Clearance in male and female Beagle dog at 0.2 mg/kg, iv and 0.4 mg/kg, po. To be noted: both, in vivo. Type of data set: ADME, organism-based, Canis lupus familiaris.
Data set [14] in a line: Half life in male and female Beagle dog at 0.2 mg/kg, iv and 0.4 mg/kg, po. Type of data set: ADME, organism-based, Canis lupus familiaris. To be noted: both, in vivo.
A short description of data set [15]: Oral bioavailability in male and female Beagle dog at 0.4 mg/kg. Type of data set: ADME, organism-based, Canis lupus familiaris. To be noted: both, in vivo.
Data set [16] relates to P-gp. Nature of the data set: Apparent permeability from apical to basolateral side of the dog MDCK cells expressing P-gp transporter. It counts as ADME, cell-based, Canis lupus familiaris. To be noted: MDCK-MDR1.

SMILES strings stand for the structures.

T1 sequence (P04626 whole entry): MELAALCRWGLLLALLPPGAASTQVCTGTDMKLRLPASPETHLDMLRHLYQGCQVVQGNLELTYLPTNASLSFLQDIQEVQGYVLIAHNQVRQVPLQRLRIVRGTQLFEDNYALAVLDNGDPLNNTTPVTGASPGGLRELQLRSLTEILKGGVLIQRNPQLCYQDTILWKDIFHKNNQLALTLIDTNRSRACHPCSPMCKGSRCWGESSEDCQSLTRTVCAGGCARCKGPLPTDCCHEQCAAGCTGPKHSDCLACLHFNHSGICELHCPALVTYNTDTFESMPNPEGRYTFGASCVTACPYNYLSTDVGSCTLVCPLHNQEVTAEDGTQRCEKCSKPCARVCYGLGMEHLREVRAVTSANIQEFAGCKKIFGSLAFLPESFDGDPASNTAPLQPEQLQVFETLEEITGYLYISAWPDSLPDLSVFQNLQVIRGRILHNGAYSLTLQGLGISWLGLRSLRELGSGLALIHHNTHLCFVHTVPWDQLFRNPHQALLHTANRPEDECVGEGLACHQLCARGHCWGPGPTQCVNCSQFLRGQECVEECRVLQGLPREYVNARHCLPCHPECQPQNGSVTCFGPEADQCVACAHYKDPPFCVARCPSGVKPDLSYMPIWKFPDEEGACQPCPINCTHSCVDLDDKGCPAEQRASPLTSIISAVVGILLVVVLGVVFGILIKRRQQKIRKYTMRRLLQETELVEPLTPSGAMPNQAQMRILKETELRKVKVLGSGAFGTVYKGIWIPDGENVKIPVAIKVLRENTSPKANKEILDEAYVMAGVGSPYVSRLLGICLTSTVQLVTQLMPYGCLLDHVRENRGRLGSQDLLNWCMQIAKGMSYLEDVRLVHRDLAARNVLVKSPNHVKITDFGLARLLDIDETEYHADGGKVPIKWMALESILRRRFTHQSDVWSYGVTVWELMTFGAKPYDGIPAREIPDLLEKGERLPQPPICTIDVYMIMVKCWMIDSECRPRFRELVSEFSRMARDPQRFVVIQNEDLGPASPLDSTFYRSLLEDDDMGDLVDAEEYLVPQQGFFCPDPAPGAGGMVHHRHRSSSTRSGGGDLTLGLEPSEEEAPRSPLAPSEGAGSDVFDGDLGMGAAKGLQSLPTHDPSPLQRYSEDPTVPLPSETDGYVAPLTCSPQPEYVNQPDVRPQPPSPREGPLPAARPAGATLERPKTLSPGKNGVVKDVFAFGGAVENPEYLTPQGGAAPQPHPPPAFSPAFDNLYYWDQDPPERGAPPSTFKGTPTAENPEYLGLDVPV

For the compound `CN1CCC(Oc2cccc3ncnc(Nc4ccc(OCc5ccccn5)c(Cl)c4)c23)CC1`, in data set [1], the midpoint of inhibition, the IC50, lay at 41 nM.

`CNCCOc1n[nH]c2ncnc(Nc3ccc(OCc4ccccn4)c(Cl)c3)c12`: the IC50 (usually the concentration that inhibits the measured activity by half) was determined as 3 nM in data set [2], 1000 nM in data set [3] and 17 nM in [4].

In the case of `Cc1ccc(Oc2ccc(Nc3ncnc4[nH]nc(OCCN5CCC(O)CC5)c34)cc2Cl)cn1`, the values for the IC50 in data set [2], in data set [3] and in [4] were less than 1 nM, 184 nM and 7 nM, respectively.

For `OC1CCN(CCOc2n[nH]c3ncnc(Nc4ccc(OCc5cccc(F)c5)c(Cl)c4)c23)CC1`, the IC50 in [2] was less than 1 nM; in [3] it was 19 nM; in [4] it was less than 1 nM.

`Clc1cc(Nc2ncnc3[nH]nc(OCCN4CCNCC4)c23)ccc1OCc1ccccn1`: the IC50 in data set [2] turned out to be 3 nM; in data set [3] it was 128 nM; in data set [4], 8 nM.

For `Clc1cc(Nc2ncnc3[nH]nc(OCCCN4CCOCC4)c23)ccc1OCc1ccccn1`, the values for the 50% inhibitory concentration (IC50) in data set [2], in data set [3] and in [4] were less than 1 nM, 440 nM and 16 nM, respectively.

On to `OC1CCN(CCCOc2n[nH]c3ncnc(Nc4ccc(OCc5ccccn5)c(Cl)c4)c23)CC1`, for which, in data set [2], the IC50 was found to be 6 nM.

Turning to `OCCOc1n[nH]c2ncnc(Nc3ccc(OCc4ccccn4)c(Cl)c3)c12`, the IC50 in data set [2] was determined as 4 nM; in data set [4], 16 nM.

As for `Cc1ccc(Oc2ccc(Nc3ncnc4[nH]nc(OCCN5CCC(O)CC5)c34)cc2C)cn1`, the results for the IC50 in [2] and in data set [3] were 11 nM and 415 nM, respectively.

Take `Cc1ccc(Oc2ccc(Nc3ncnc4[nH]nc(OCCN5CCC(O)CC5)c34)cc2F)cn1`: the IC50 in data set [2] turned out to be 5 nM; in data set [4], 1430 nM.

Turning to `CC(=O)N1CCN(CCOc2n[nH]c3ncnc(Nc4ccc(OCc5ccccn5)c(Cl)c4)c23)CC1`, the values for the half-maximal inhibitory concentration (IC50) in data set [2], in data set [3] and in [4] were less than 1 nM, 129 nM and 3 nM, respectively.

As to `CN1CCN(CCOc2n[nH]c3ncnc(Nc4ccc(OCc5ccccn5)c(Cl)c4)c23)CC1`, the IC50 in [2] was 1 nM; in data set [3], 166 nM; in [1] it was 17 nM; in [5], 220 nM; in [4], 5 nM. For the same compound, the fraction unbound in data set [6] came out at 0.1; in data set [11], 0.21. For the same compound, the Vd stood at 4.5 L/kg in data set [7] and 9 L/kg in data set [12]. The clearance in [8] came to 41 mL/min/kg; in data set [13], 46 mL/min/kg. The half-life (as a rule, the time in which the quantity being followed falls by half) in data set [9] was 1.4 h; in data set [14] it was 2.4 h. Moreover, the bioavailability (in general, dose-corrected exposure relative to a reference, in per cent) was determined as 23% in [10] and 30% in [15]. In addition, in data set [16], the Papp A→B (in general, how fast a substance crosses the layer from the apical side) was 9.5 ×10⁻⁶ cm/s.

As for `Clc1cc(Nc2ncnc3n[nH]c(OCCN4CCCCCO4)c23)ccc1OCc1ccccn1`, the IC50 in data set [2] is less than 1 nM; in data set [3], 148 nM; in data set [4] it was less than 1 nM.

Take `Clc1cc(Nc2ncnc3[nH]nc(OCCN4CCOCC4)c23)ccc1OCc1ccccn1`: the IC50 in data set [2] was less than 1 nM; in data set [4], 1 nM.

Take `CN1CCN(CCCOc2n[nH]c3ncnc(Nc4ccc(OCc5ccccn5)c(Cl)c4)c23)CC1`: the IC50 in data set [2] is 4 nM; in [4], 14 nM.

For `COc1cc(Nc2ncnc3[nH]nc(OCCN4CCC(O)CC4)c23)ccc1OCc1ccccn1`, the IC50 in data set [2] was determined as 17 nM; in data set [3] it was 1480 nM.

Turning to `COc1cc(Nc2ncnc3[nH]nc(OCCN4CCC(O)CC4)c23)ccc1OCc1cccc(F)c1`, the half-inhibitory concentration (IC50) in data set [2] was 3 nM; in [3], 613 nM; in data set [4], 13 nM.

For the compound `Cc1cc(Nc2ncnc3[nH]nc(OCCN4CCC(O)CC4)c23)ccc1OCc1ccccn1`, the IC50 in data set [2] came to 5 nM; in data set [3], 695 nM; in data set [4], 18 nM.

For `OC1CCN(CCOc2n[nH]c3ncnc(Nc4ccc(OCc5ccccn5)c(Cl)c4)c23)CC1`, the half-maximal inhibitory concentration (IC50) in data set [2] came to 5 nM; in [3], 135 nM; in [4], 13 nM.

Consider `COC1CCN(CCOc2n[nH]c3ncnc(Nc4ccc(OCc5ccccn5)c(Cl)c4)c23)CC1`, for which the IC50 in data set [2] amounted to 4 nM; in data set [3], 82 nM; in [4] it was 28 nM.

In the case of `Cc1cc(Nc2ncnc3[nH]nc(OCCN4CCC(O)CC4)c23)ccc1OCc1cccc(F)c1`, the IC50 is less than 1 nM in data set [2], 107 nM in [3] and less than 1 nM in [4].
